Results from US9206219B2, “17-hydroxy-17-pentafluorethyl-estra-4,9(10)-dien-11-aryl derivatives, methods for the production thereof and the use thereof for treating diseases” (Bayer Intellectual Property GmbH, priority 2009, dated 2015).

Legend:
[1] = target: T1, human progesterone receptor A (Homo sapiens, UniProt P06401); experiment: Progesterone receptor-antagonistic action in stably transfected SK-N-MC cells, MMTV-LUC reporter (PR-A); format: cell-based; details: antagonistic potency vs 0.1 nmol/l promegestone, 24 hours
T1 construct: expressed in transfected cells; host or cells: SK-N-MC human neuroblastoma cells, stably transfected with pRChPR-A-neo and pMMTV-LUC
T1 sequence (P06401 1-769 isoform P06401-2): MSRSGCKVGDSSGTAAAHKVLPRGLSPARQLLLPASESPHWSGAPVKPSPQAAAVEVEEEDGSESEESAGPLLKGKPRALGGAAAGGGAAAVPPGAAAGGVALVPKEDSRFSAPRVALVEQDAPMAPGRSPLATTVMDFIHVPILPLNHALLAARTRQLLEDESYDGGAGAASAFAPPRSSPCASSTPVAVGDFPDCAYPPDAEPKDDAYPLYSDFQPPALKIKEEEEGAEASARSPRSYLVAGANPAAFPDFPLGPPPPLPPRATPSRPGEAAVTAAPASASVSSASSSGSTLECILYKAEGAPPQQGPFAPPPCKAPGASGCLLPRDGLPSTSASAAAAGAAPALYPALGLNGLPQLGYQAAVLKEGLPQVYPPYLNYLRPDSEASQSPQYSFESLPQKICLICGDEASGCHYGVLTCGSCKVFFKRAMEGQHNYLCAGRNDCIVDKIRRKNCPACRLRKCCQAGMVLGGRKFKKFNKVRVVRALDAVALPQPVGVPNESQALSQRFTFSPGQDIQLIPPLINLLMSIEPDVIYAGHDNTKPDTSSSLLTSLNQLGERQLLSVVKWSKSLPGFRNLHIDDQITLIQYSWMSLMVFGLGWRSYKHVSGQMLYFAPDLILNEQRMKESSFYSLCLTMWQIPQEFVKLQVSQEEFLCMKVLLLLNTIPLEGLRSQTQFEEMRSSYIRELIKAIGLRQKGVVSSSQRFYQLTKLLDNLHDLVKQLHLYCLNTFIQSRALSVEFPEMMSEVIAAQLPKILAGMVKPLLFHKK
Description: (§1) Progesterone Receptor-Antagonistic Action in Stable Transfectants of Human Neuroblastoma Cells (SK-N-MC Cells) with the Human Progesterone A or Progesterone B Receptor and an MN-LUC Reporter Construct
(§2) SK-N-MC cells (human neuroblastoma cells) which have been stably transfected with plasmids expressing the human progesterone receptor B (pRChPR-B-neo) or the human progesterone receptor A (pRChPR-A-neo) and a reporter construct (pMMTV-LUC) were incubated for 24 hours either in the absence (negative control) or in the presence of ascending amounts of the particular test compound (0.01 nmol/l, 0.1 nmol/l, 1 nmol/l, 10 nmol/l, 100 nmol/l and […]), in order to determine the agonistic efficacy. As a positive control of the reporter gene induction, the cells were treated with the synthetic gestagen promegestone (0.01 nmol/l, 0.1 nmol/l, 1 nmol/l, 10 nmol/l, 100 nmol/l and […]). To determine the antagonistic activity, the cells were treated with 0.1 nmol/l promegestone and additionally with ascending amounts of the particular test compound (0.01 nmol/l, 0.1 nmol/l, 1 nmol/l, 10 nmol/l, 100 nmol/l and […]). The activity of the reporter gene LUC (LUC=luciferase) was determined in the cell lysates and measured as RLU (relative light units). All measurements are reported as % efficacy and as EC50 and IC50 concentrations.

[2] = target: T2, human progesterone receptor B (Homo sapiens, UniProt P06401); experiment: Progesterone receptor-antagonistic action in stably transfected SK-N-MC cells, MMTV-LUC reporter (PR-B); format: cell-based; details: antagonistic potency vs 0.1 nmol/l promegestone, 24 hours
T2 construct: expressed in transfected cells; host or cells: SK-N-MC human neuroblastoma cells, stably transfected with pRChPR-B-neo and pMMTV-LUC
T2 sequence (P06401 1-933): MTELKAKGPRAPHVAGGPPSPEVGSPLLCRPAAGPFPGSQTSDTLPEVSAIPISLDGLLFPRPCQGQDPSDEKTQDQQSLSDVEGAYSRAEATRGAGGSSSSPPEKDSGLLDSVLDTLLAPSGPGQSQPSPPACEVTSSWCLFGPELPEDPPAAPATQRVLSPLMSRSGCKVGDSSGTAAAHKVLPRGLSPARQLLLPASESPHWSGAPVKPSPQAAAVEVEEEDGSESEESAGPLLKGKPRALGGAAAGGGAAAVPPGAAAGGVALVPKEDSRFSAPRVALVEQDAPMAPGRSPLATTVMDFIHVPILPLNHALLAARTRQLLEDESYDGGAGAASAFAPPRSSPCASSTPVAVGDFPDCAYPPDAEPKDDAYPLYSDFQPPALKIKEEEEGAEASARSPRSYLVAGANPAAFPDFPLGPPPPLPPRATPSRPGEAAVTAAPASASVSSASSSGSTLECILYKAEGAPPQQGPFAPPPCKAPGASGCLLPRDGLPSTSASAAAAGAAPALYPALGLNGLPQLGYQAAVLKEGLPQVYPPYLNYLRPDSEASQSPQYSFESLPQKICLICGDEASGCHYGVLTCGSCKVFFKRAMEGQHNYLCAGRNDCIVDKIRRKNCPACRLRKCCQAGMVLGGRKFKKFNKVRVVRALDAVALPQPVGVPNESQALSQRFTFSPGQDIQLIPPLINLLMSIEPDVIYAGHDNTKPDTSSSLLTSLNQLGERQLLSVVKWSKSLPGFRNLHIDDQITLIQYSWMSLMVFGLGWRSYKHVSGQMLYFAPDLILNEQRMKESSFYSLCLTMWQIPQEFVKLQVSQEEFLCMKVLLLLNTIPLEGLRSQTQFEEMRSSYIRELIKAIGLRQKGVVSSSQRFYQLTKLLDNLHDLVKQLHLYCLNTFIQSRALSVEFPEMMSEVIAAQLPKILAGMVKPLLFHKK
Description: as §1, §2

SMILES	IC50 [1] [nM]	IC50 [2] [nM]
C[C@]12C[C@H](c3ccc(CNC(=O)NCC(=O)O)cc3)C3=C4CCC(=O)C=C4CC[C@H]3[C@@H]1CC[C@@]2(O)C(F)(F)C(F)(F)F [Example 26, {3-[4-((8S,11R,13S,14S,17S)-17-hydroxy-13-methyl-3-oxo-17-pentafluoroethyl-2,3,6,7,8,11,12,13,14,15,16,17-dodecahydro-1H-cyclopenta[a]phenanthren-11-yl)benzyl]ureido}acetic acid]	24	64
C[C@]12C[C@H](c3ccc(CNC(=O)NCCC(=O)O)cc3)C3=C4CCC(=O)C=C4CC[C@H]3[C@@H]1CC[C@@]2(O)C(F)(F)C(F)(F)F [Example 27, 3-{3-[4-((8S,11R,13S,14S,17S)-17-hydroxy-13-methyl-3-oxo-17-pentafluoroethyl-2,3,6,7,8,11,12,13,14,15,16,17-dodecahydro-1H-cyclopenta[a]phenanthren-11-yl)benzyl]ureido}propionic acid]	43	29
C[C@]12C[C@H](c3ccc(CN=[N+]=[N-])cc3)C3=C4CCC(=O)C=C4CC[C@H]3[C@@H]1CC[C@@]2(O)C(F)(F)C(F)(F)F [Example 28, (8S,11R,13S,14S,17S)-11-(4-azidomethylphenyl)-17-hydroxy-13-methyl-17-pentafluoroethyl-1,2,6,7,8,11,12,13,14,15,16,17-dodecahydrocyclopenta[a]phenanthren-3-one]	0.01	0.08
C[C@]12C[C@H](c3ccc(-c4nnn[nH]4)cc3)C3=C4CCC(=O)C=C4CC[C@H]3[C@@H]1CC[C@@]2(O)C(F)(F)C(F)(F)F [Example 31, (8S,11R,13S,14S,17S)-17-hydroxy-13-methyl-17-pentafluoroethyl-11-[4-(1H-tetrazol-5-yl)phenyl]-1,2,6,7,8,11,12,13,14,15,16,17-dodecahydrocyclopenta[a]phenanthren-3-one]	138	137
COc1ccc(NC(=O)NCc2ccc([C@H]3C[C@@]4(C)[C@@H](CC[C@@]4(O)C(F)(F)C(F)(F)F)[C@@H]4CCC5=CC(=O)CCC5=C43)cc2)cc1 [Example 32, 1-[4-((8S,11R,13S,14S,17S)-17-hydroxy-13-methyl-3-oxo-17-pentafluoroethyl-2,3,6,7,8,11,12,13,14,15,16,17-dodecahydro-1H-cyclopenta[a]phenanthren-11-yl)benzyl]-3-(4-methoxyphenyl)urea]	0.1	0.2

Now from value to compound:

IC50 [1] [nM]	IC50 [2] [nM]	SMILES
0.8	0.8	C[C@]12C[C@H](c3ccc(CNC(=O)Nc4ccc(F)cc4)cc3)C3=C4CCC(=O)C=C4CC[C@H]3[C@@H]1CC[C@@]2(O)C(F)(F)C(F)(F)F [Example 33, 1-(4-fluorophenyl)-3-[4-((8S,11R,13S,14S,17S)-17-hydroxy-13-methyl-3-oxo-17-pentafluoroethyl-2,3,6,7,8,11,12,13,14,15,16,17-dodecahydro-1H-cyclopenta[a]phenanthren-11-yl)benzyl]urea]
0.7	0.8	C[C@]12C[C@H](c3ccc(CNC(=O)Nc4ccc(Cl)cc4)cc3)C3=C4CCC(=O)C=C4CC[C@H]3[C@@H]1CC[C@@]2(O)C(F)(F)C(F)(F)F [Example 34, 1-(4-chlorophenyl)-3-[4-((8S,11R,13S,14S,17S)-17-hydroxy-13-methyl-3-oxo-17-pentafluoroethyl-2,3,6,7,8,11,12,13,14,15,16,17-dodecahydro-1H-cyclopenta[a]phenanthren-11-yl)benzyl]urea]
0.3	0.6	CC(C)(C)c1ccc(NC(=O)NCc2ccc([C@H]3C[C@@]4(C)[C@@H](CC[C@@]4(O)C(F)(F)C(F)(F)F)[C@@H]4CCC5=CC(=O)CCC5=C43)cc2)cc1 [Example 35, 1-(4-tert-butylphenyl)-3-[4-((8S,11R,13S,14S,17S)-17-hydroxy-13-methyl-3-oxo-17-pentafluoroethyl-2,3,6,7,8,11,12,13,14,15,16,17-dodecahydro-1H-cyclopenta[a]phenanthren-11-yl)benzyl]urea]
